Results: patent US20170197935A1, “INHIBITORS OF DNA GYRASE FOR THE TREATMENT OF BACTERIAL INFECTIONS” (Vitas Pharma Research Private Limited, priority 2012, published 2017)
≈ marks a conversion by molar mass, not a printed value. Where two headings read alike, the source gives them in different places.

Legend:
E. coli Gyrase = target: T1, E. coli Gyrase (Escherichia coli, UniProt P0AES4+P0AES6); assay: in vitro Gyrase supercoiling assay (Inspiralis kit); type: biochemical; conditions: 1 hour at 37° C., read-out: % inhibition of DNA supercoiling activity; for inhibition at 0.1 µM: 0.1 μM compound; for inhibition at 1 µM: 1 μM compound
T1 construct: purchased Inspiralis
Method: To test for target specificity, the activity of compounds was evaluated in an in vitro Gyrase assay using recombinant Gyrase protein as per the instructions of the assay kit (Inspiralis). The assay measures the ability of E. coli Gyrase to convert relaxed plasmid DNA into the supercoiled form. The enzyme is incubated with the substrate (relaxed DNA) in the presence and absence of compounds for 1 hour at 37° C. and the DNA is run on a gel at low voltage for several hours. The gel is then stained with Ethidium bromide and DNA in the different forms is quantified using DNA imaging and quantification software (Image Lab). The activity of the enzyme is proportional to the amount of supercoiled form detected.

[1] = system: K. pneumoniae (ATCC 700603); assay: MIC by microbroth dilution, K. pneumoniae ATCC 700603; type: cell-based; conditions: Klebsiella pneumoniae, ATCC700603, Formula I compounds
Method: (§1) Shown below are the microbiological activities of representative compounds of Formula I of the invention. The compounds were tested by the microbroth dilution method (National committee for Clinical Laboratory Standards, 2011, M07-08) and the Minimum Inhibitory Concentration (MIC) was determined.
(§2) Analysis of microbiological activity of compounds shown below are the microbiological activities of representative compounds of Formula II of the invention. The compounds were tested by the microbroth dilution method as per the reference in Example 1.

[2] = system: Streptococcus pneumoniae (ATCC 6301); assay: MIC by microbroth dilution, Streptococcus pneumoniae ATCC 6301; type: cell-based; conditions: ATCC6301
Method: (§3) Shown below are the microbiological activities of representative compounds of Formula I of the invention. The compounds were tested by the microbroth dilution method (National committee for Clinical Laboratory Standards, 2011, […]-08) and the Minimum Inhibitory Concentration (MIC) was determined.

[3] = system: Enterococcus faecalis (ATCC 29212); assay: MIC by microbroth dilution, Enterococcus faecalis ATCC 29212; type: cell-based; conditions: ATCC29212
Method: as §3

[4] = system: Methicillin resistant Staphylococcus aureus (ATCC 33591); assay: MIC by microbroth dilution, MRSA ATCC 33591; type: cell-based
Method: as §1, §2

E. coli (ATCC 25922) = assay: MIC by microbroth dilution, E. coli ATCC 25922; type: cell-based; conditions: Escherichia coli
Method: as §1, §2

[5] = system: Staphylococcus aureus (ATCC 29213); assay: MIC by microbroth dilution, Staphylococcus aureus ATCC 29213; type: cell-based; conditions: ATCC29213
Method: as §3

[6] = system: Moraxella catarrhalis (ATCC 8176); assay: MIC by microbroth dilution, Moraxella catarrhalis ATCC 8176; type: cell-based; conditions: ATCC8176
Method: as §3

E. faecalis ATCC 51299 = assay: MIC by microbroth dilution, E. faecalis ATCC 51299; type: cell-based; conditions: Enterococcus faecalis, ATCC51299, Formula II compounds, read-out: Minimum Inhibitory Concentration (MIC) E. faecalis ATCC 51299
Method: as §1, §2

Pseudomonas ATCC 27853 = assay: MIC by microbroth dilution, Pseudomonas ATCC 27853; type: cell-based; conditions: ATCC27853, Formula II compounds, read-out: Minimum Inhibitory Concentration (MIC) Pseudomonas ATCC 27853
Method: as §1, §2

Acinetobacter BAA747 = assay: MIC by microbroth dilution, Acinetobacter BAA747; type: cell-based; conditions: Formula II compounds, read-out: Minimum Inhibitory Concentration (MIC) Acinetobacter BAA747
Method: as §1, §2

[7] = target: T2, ciprofloxacin resistant recombinant Gyrase protein (with mutation S83L) (Escherichia coli, UniProt P0AES4+P0AES6, S83L); assay: Gyrase supercoiling assay with ciprofloxacin resistant Gyrase (S83L); type: biochemical; conditions: read-out: Target specificity: % inhibition of supercoiling activity
T2 construct: purchased Inspiralis
Method: The enzyme is incubated with the substrate (relaxed DNA) in the presence and absence of compounds for 1 hour at 37° C. and the DNA is run on a gel at low voltage for several hours. The amount of supercoiled DNA is quantified using DNA imaging and quantification software (Image Lab). The activity of the enzyme is proportional to the amount of supercoiled form detected.

[8] = ATCC33591, Formula I compounds, read-out: MIC Methicillin resistant Staphylococcus aureus (ATCC 33591)
[9] = ATCC25922, Formula I compounds, read-out: MIC E. coli (ATCC 25922)
[10] = Formula II compounds, read-out: Minimum Inhibitory Concentration (MIC) MRSA ATCC 33591
[11] = ATCC25922, Formula II compounds, read-out: Minimum Inhibitory Concentration (MIC) E. coli ATCC 25922

Row | MIC [4, 10] | MIC (E. coli (ATCC 25922); [11]) | MIC (Pseudomonas ATCC 27853) | MIC (Acinetobacter BAA747) | Structure (SMILES) | inhibition at 0.1 µM (E. coli Gyrase) | inhibition at 1 µM (E. coli Gyrase) | MIC [1] | MIC [2] | MIC [3] | MIC [4, 8] | MIC (E. coli (ATCC 25922); [9]) | MIC [5] | MIC [6] | MIC (E. faecalis ATCC 51299) | inhibition at 0.1 µM [7] | inhibition at 1 µM [7]
1 | – | – | – | – | COc1ccc2ncc(C#N)c(CCN3CCC(NCc4cc5c(c([N+](=O)[O-])c4)OCO5)CC3)c2c1 [VT-03-00077] | 38.8% | 88.5% | > 16 µg/mL | 0.12 µg/mL (≈ 0.245 µM) | 1 µg/mL (≈ 2.04 µM) | 0.12 µg/mL (≈ 0.245 µM) | 2 µg/mL (≈ 4.09 µM) | 0.06 µg/mL (≈ 0.123 µM) | 0.25 µg/mL (≈ 0.511 µM) | – | – | –
2 | 0.06 µg/mL (≈ 0.139 µM) | 1 µg/mL (≈ 2.32 µM) | – | – | Cc1ccc(CNC2CCN(CCN3C(=O)CNc4ccc(Cl)nc43)CC2)cc1F [VT-03-00107] | – | – | – | – | – | – | – | – | – | 0.5 µg/mL (≈ 1.16 µM) | – | –
3 | – | – | – | – | COc1ccc2ncc(C#N)c(CCN3CCC(NCc4ccc(N(C)C)c([N+](=O)[O-])c4)CC3)c2c1 [VT-03-00064] | 89.3% | 98.1% | > 32 µg/mL | 0.12 µg/mL (≈ 0.246 µM) | 2 µg/mL (≈ 4.09 µM) | 0.25 µg/mL (≈ 0.512 µM) | 4 µg/mL (≈ 8.19 µM) | 0.12 µg/mL (≈ 0.246 µM) | 0.25 µg/mL (≈ 0.512 µM) | – | – | –
4 | 4 µg/mL (≈ 8.94 µM) | 8 µg/mL (≈ 17.9 µM) | > 32 µg/mL | 8 µg/mL (≈ 17.9 µM) | Cc1ccc(CNC2CCN(CCn3c(=O)cnc4ncc(C#N)cc43)CC2)cc1[N+](=O)[O-] [VT-03-00119] | – | – | – | – | – | – | – | – | – | 16 µg/mL (≈ 35.8 µM) | – | –
5 | 0.015 µg/mL (≈ 0.0319 µM) | 2 µg/mL (≈ 4.26 µM) | 32 µg/mL (≈ 68.2 µM) | 0.5 µg/mL (≈ 1.06 µM) | COc1ccc2ncc(=O)n(CCN3CC[C@H](NCc4ccc(C)c([N+](=O)[O-])c4)[C@H](F)C3)c2c1 [VT-03-00134] | – | – | – | – | – | – | – | – | – | 0.25 µg/mL (≈ 0.532 µM) | – | –
6 | – | – | – | – | COc1ccc2ncc(=O)n(CCN3CCC(NCc4ccc(Br)c([N+](=O)[O-])c4)CC3)c2c1 [VT-03-00066] | 55.9% | 89.9% | > 32 µg/mL | 1 µg/mL (≈ 1.94 µM) | 4 µg/mL (≈ 7.75 µM) | 1 µg/mL (≈ 1.94 µM) | 16 µg/mL (≈ 31 µM) | 0.5 µg/mL (≈ 0.968 µM) | 4 µg/mL (≈ 7.75 µM) | – | – | –
7 | 0.25 µg/mL (≈ 0.522 µM) | 8 µg/mL (≈ 16.7 µM) | – | – | CNC(=O)c1ccc2ncc(=O)n(CCN3CCC(NCc4ccc(C)c([N+](=O)[O-])c4)CC3)c2c1 [VT-03-00108] | – | – | – | – | – | – | – | – | – | 2 µg/mL (≈ 4.18 µM) | – | –
8 | 0.5 µg/mL (≈ 1.13 µM) | 2 µg/mL (≈ 4.54 µM) | > 32 µg/mL | 8 µg/mL (≈ 18.2 µM) | COc1ccc2ncc(=S)n(CCN3CCC(NCc4ccc(C)c(F)c4)CC3)c2c1 [VT-03-00126] | – | – | – | – | – | – | – | – | – | – | – | –
9 | – | – | – | – | COc1ccc2ncc(C#N)c(CCN3CCC(NC(=O)c4ccc([N+](=O)[O-])c(F)c4)CC3)c2c1 [VT-03-00055] | 52.7% | 71% | > 32 µg/mL | 0.03 µg/mL (≈ 0.0628 µM) | 0.25 µg/mL (≈ 0.524 µM) | 4 µg/mL (≈ 8.38 µM) | > 32 µg/mL | 1 µg/mL (≈ 2.09 µM) | > 32 µg/mL | – | – | –

Row | Structure (SMILES) | MIC [4, 10] | MIC (E. coli (ATCC 25922); [11]) | MIC (Pseudomonas ATCC 27853) | MIC (Acinetobacter BAA747) | inhibition at 0.1 µM (E. coli Gyrase) | inhibition at 1 µM (E. coli Gyrase) | MIC [1] | MIC [2] | MIC [3] | MIC [4, 8] | MIC (E. coli (ATCC 25922); [9]) | MIC [5] | MIC [6] | MIC (E. faecalis ATCC 51299) | inhibition at 0.1 µM [7] | inhibition at 1 µM [7]
10 | Cc1ccc(CNC2CCN(CCn3c(=O)cnc4ccc(C#N)cc43)CC2)cc1F [VT-03-00103] | 0.03 µg/mL (≈ 0.0715 µM) | 0.5 µg/mL (≈ 1.19 µM) | 32 µg/mL (≈ 76.3 µM) | 1 µg/mL (≈ 2.38 µM) | – | – | – | – | – | – | – | – | – | 0.25 µg/mL (≈ 0.596 µM) | 55.8% | 87.5%
11 | Cc1ccc(CNC2CCN(CCn3c(=O)cnc4ccc(Cl)nc43)CC2)cc1F [VT-03-00111] | 0.125 µg/mL (≈ 0.291 µM) | 1 µg/mL (≈ 2.33 µM) | – | – | – | – | – | – | – | – | – | – | – | 0.5 µg/mL (≈ 1.16 µM) | 90.4% | 87.6%
12 | Cc1ccc(CNC2CCN(CCn3c(=O)cnc4ccc(Br)cc43)CC2)cc1F [VT-03-00102] | ≤ 0.0075 µg/mL | 8 µg/mL (≈ 16.9 µM) | – | – | – | – | – | – | – | – | – | – | – | 0.5 µg/mL (≈ 1.06 µM) | 96.5% | 95.3%
13 | COc1ccc2ncc(=O)n(CCN3CCC(NCc4ccc(Cl)c([N+](=O)[O-])c4)CC3)c2c1 [VT-03-00128] | 0.015 µg/mL (≈ 0.0318 µM) | 0.5 to 1 µg/mL (≈ 1.06 to 2.12 µM) | 8 µg/mL (≈ 17 µM) | 0.25 µg/mL (≈ 0.53 µM) | – | – | – | – | – | – | – | – | – | 0.25 µg/mL (≈ 0.53 µM) | 34% | 51%
